From patent publication US20040013696A1, “Use of ellagic acid as an anti-pollution cosmetic agent” (priority 2000, published 2004) come the findings set out here.

The subject of data set [1] is human keratinocytes. The experiment in a line: Covalent binding of 14C-benzo[a]pyrene to cell proteins (alkylation of nucleophiles). Format: cell-based. The text has this:
Polycyclic aromatic hydrocarbons (PAHs), adsorbed onto the surface of particles and dust conveyed by the urban atmosphere, can penetrate into skin tissue and be biotransformed therein. Their metabolism in the liver, which is well-described in the literature, leads to the formation of monohydroxylated metabolites (detoxification pathway), epoxides and diol epoxides (toxifying pathway). It follows the same profile in the skin. […] After consequent or repeated exposures to the pollutant, its potential toxicity can lead to a contact hypersensitivity in the case of the alkylation of proteins. […] The cells are inoculated on D-3 into 6-well dishes at a rate of 53 000 cells/cm^2. The incubations are performed at 37° C. in humid atmosphere enriched with 5% CO2. […] The covalent binding to cell proteins is measured according to the protocol of Hoellinger et al., adapted to a filtration method in 96-well microplates (H. Hoellinger, M. Sonnier, J. Gray, T. A. Connors, J. Pichon and N. H. Nam. In vitro covalent binding of […], bioresmethrin and their common alcohol to hepatic proteins. Toxicol. Appl. Pharmacol., 1985, 77, 11-18). […] The aim of this series of washes is to remove from the proteins any radioactivity not covalently bound. […] Samples are then taken to assay the proteins and count the radioactivity of the solution. The results are expressed as nmol of B[a]P bound per mg of proteins.

In data set [2] the test system is human keratinocytes.
Procedure: The study was performed on a monolayer culture of human keratinocytes obtained from plastic surgeries. The cells are inoculated on D-3 into 96-well dishes at a rate of 25 000 cells/cm^2 in 100 μl of culture medium. The incubations are performed at 37° C. in a humid atmosphere enriched with 5% CO2.
Initially, the cells are treated for 24 hours with increasing concentrations (0, 10, 25, 50, 75, 100, 150 and 200 μM) of cadmium chloride (CdCl2), so as to determine its cytotoxicity. […]
At the end of the treatment, the cell viability is determined by means of the neutral red incorporation test (POS 55/006) and reading at 550 nm (ref: Borenfreund, E and Puerner, J. A. (1984) A simple quantitative procedure using monolayer cultures for cytotoxicity assays. Tissue Culture Methods; 9: 7-9).
The cells are rinsed with PBS buffer in order to remove the treatment solutions, and are then incubated for three hours at 37° C. in a neutral red solution (100 μl) prepared to a concentration of 0.5 mg/ml in the culture medium. […] The amount extracted is determined by reading the optical density on a spectrophotometer at 550 nm.
The concentration of CdCl2 that induces a 50% drop in the cell viability (IC-50) is then calculated.
For data set [3], the system named is human keratinocytes. Description: Protection against the effects of ozone: ozone-induced lipid hydroperoxides (DCFH-DA fluorescence). Type of data set: cell-based. The note with it: ellagic acid 200 μM; for % fluorescence observed ± SEM, relative to the unprotected controls: ozone 10 ppm. The method, then: Ozone has the capacity to oxidize cell constituents, especially generating carbonylated proteins and lipid hydroperoxides. Quantification of the lipid hydroperoxides is one means of measuring the oxidative stress induced by an exposure of skin tissue to this pollutant. A decrease in their content indicates a protective effect of ellagic acid. […] The incubations are performed at 37° C., 5% CO2 in humid atmosphere. […] Hydroperoxides constitute an intracellular stress marker. They are detected and quantified by means of a fluorescence technique (Lebel C. P., Ischiropoulos H. and Bondy S. C. […] Chem. Res. Toxicol.: 5: 227-231). […] The cells, pretreated for 24 hours with ellagic acid, are then washed with phosphate-buffered saline (PBS) and placed in contact for 30 minutes with a solution of DCFH-DA (500 μl/well), prepared in the culture medium to a concentration of 320 μM. […] They are then exposed to ozone (10 ppm), in a humid atmosphere, in an incubator set at 37° C. The formation of fluorescent DCF (excitation screen at 485 nm and emission screen at 530 nm) resulting from the production of hydroperoxides is measured after different times of exposure to ozone: 0, 5, 10 and 20 minutes. […] For each time, the fluorescence values of the unprotected controls are set at 100%. The resulting values in the presence of ellagic acid are then expressed relative to this control value. […] This protection is at a maximum from 5 minutes of exposure onward (71.8% drop in induced stress). It is still significant after 20 minutes of exposure (47.7% drop in induced stress).

On to `c1ccc2c(c1)cc1ccc3cccc4ccc2c1c34` [B (a) P, benzo(a)pyrene, reference compound], for which the “covalent binding to keratinocyte proteins” value in data set [1] (benzo(a)pyrene alone at 20 μM) is 0.28 nmol of B(a)P per mg of protein.
`[Cl][Cd][Cl]` [cadmium chloride, reference compound]: the IC50 in data set [2] (read-out: IC-50 of cadmium chloride, Mean ± SEM, without ellagic acid, 24 hours, n=4) came out at 39 µM.
As to `O=c1oc2c(O)c(O)cc3c(=O)oc4c(O)c(O)cc1c4c23` [ellagic acid, 2,3,7,8-tetrahydroxy-(1)benzopyrano(5,4,3-cde)(1)benzopyran-5,10-dione], the “reduction in the reactivity of B(a)P by a factor” value in data set [1] (in the presence of ellagic acid 100 μM) amounted to 3.1. The “maximum dose of ellagic acid noncytotoxic to the cells” value in data set [2] (human, 24 h) was determined as 200 µM. The “drop in induced stress” value stood at 71.8% in data set [3] (5 minutes of exposure to ozone) and 47.7% in data set [3] (20 minutes of exposure to ozone). Moreover, the “% fluorescence observed ± SEM, relative to the unprotected controls” value in data set [3] (5 min. of contact) turned out to be 28.2 ± 3.3%; in data set [3] (10 min. of contact), 36.3 ± 3.4%; in data set [3] (20 min. of contact) it was 52.3 ± 4.4%.
